The results in this text go back to patent US6960683B2, “Salt forms of poorly soluble probucol esters and ethers” (Atherogenics, Inc., priority 2002, dated 2005).

In one data set the test system is VCAM-1. In words: In Vitro VCAM-1 Assay (ELISA of TNF-α-stimulated endothelial cells). In kind it is cell-based, human. Particulars: HAEC or HPAEC cells stimulated with TNF-α (1 ng/ml), approx. 16 h, n = 3. The method, then:
Cell Culture and compound dosing: Cultured primary human aortic (HAEC) or pulmonary (HPAEC) endothelial cells were obtained from Clonetics, Inc., and were used below passage 9. Cells were seeded in 96 well plates such that they would reach 90-95% confluency by the following day. On the following day the cells were stimulated with TNF-α (1 ng/ml) in the presence or absence of compounds dissolved in DMSO such that the final concentration of DMSO is 0.25% or less. To establish a dose curve for each compound, four concentrations in 2- to 5-fold increments were used. Cells were exposed to TNF-α and compounds for approximately 16 hours. The next day the cells were examined under microscope to score for visual signs of toxicity or cell stress.
Following 16 hr exposure to TNF-α and compound the media was discarded and the cells were washed once with Hanks Balanced Salt Solution (HBSS)/Phosphate buffered saline (PBS) (1:1). Primary antibodies against VCAM-1 (0.25 μg/ml in HBSS/PBS+5% FBS) were added and incubated for 30-60 minutes at 37° C. Cells were washed with HBSS/PBS three times, and secondary antibody Horse Radish Peroxidase (HRP)-conjugated goat anti-mouse IgG (1:500 in HBSS/PBS+5% FBS) were added and incubated for 30 minutes at 37° C. Cells were washed with HBSS/PBS four times and TMB substrate were added and incubated at room temperature in the dark until there was adequate development of blue color. The length of time of incubation was typically 5-15 minutes. 2N sulfuric acid was added to stop the color development and the data was collected by reading the absorbance on a BioRad ELISA plate reader at OD 450 nm. The results are expressed as IC50 values (the concentration (micromolar) of compound required to inhibit 50% of the maximal response of the control sample stimulated by TNF-α only). IC50's of the Examples and the free acid of the Examples are tabulated in VCAM-1 Table 1a.
A general note: ELISA stands for enzyme-linked immunosorbent assay.

A further data set is described as follows: Solubility in water. In kind it is physicochemical. Particulars: for solubility: water, 25 °C.
Where [1] appears, read: Homo sapiens, Endothelial cell, free acid of the Example, read-out: IC50 (μM) of the free acid (n = 3).
[2] abbreviates: free acid of the Example, ˜25° C., read-out: Solubility, Free acid (μg/ml) @ ˜25° C.
The mark [3] stands for this setting: Homo sapiens, Endothelial cell, meglumine salt of the Example, read-out: IC50 (μM) (n = 3).
Setting [4] is: meglumine salt of the Example, ˜25° C., read-out: Solubility (μg/ml) @ ˜25° C.
Where [5] appears, read: meglumine salt, value given in the synthesis example, read-out: Solubility in water.

Where a name gives a salt, the structure may show the parent alone. Read-outs that look alike come from different tables or passages of the source.

Regarding `CC(C)(Sc1cc(C(C)(C)C)c(O)c(C(C)(C)C)c1)Sc1cc(C(C)(C)C)c(OCC(=O)O)c(C(C)(C)C)c1` [Example 2 free acid, Acetic acid, [4-[[1-[[3,5-bis(1,1-dimethylethyl)-4-hydroxyphenyl]thio]-1-methyl-ethyl]thio]-2,6-bis(1,1-dimethylethyl)phenoxy]-, reference compound], the half-inhibitory concentration (IC50) with VCAM-1 (setting [1]) was determined as 10 µM. For the same compound, the solubility in the data set “Solubility in water” (setting [2]) is less than 5 µg/mL.

As for `CC(C)(Sc1cc(C(C)(C)C)c(O)c(C(C)(C)C)c1)Sc1cc(C(C)(C)C)c(OC(=O)CCC(=O)O)c(C(C)(C)C)c1` [Example 1 free acid, Butanedioic acid, mono [4-[[1-[[3,5-bis(1,1-dimethylethyl)-4-hydroxyphenyl]thio]-1-methylethyl]thio]-2,6-bis(1,1-dimethylethyl)phenyl]ester, reference compound], in the data set with VCAM-1 (free acid of the Example, read-out: IC50 (μM) of the free acid (n = 3)), the IC50 worked out at 7.7 µM. Further, the “Solubility, Free acid (μg/ml) @ ˜25° C.” value in “Solubility in water” (free acid of the Example, ˜25° C.) is less than 5 µg/mL.

For `CC(C)(Sc1cc(C(C)(C)C)c(O)c(C(C)(C)C)c1)Sc1cc(C(C)(C)C)c(OCCCC(=O)O)c(C(C)(C)C)c1` [Example 3 free acid, Butanoic acid, 4-[4-[[1-[[3,5-bis(1,1-dimethylethyl)4-hydroxyphenyl]thio]-1-methyl-ethyl]thio]-2,6-bis(1,1-dimethylethyl)phenoxy]-, reference compound], in the data set with VCAM-1 (setting [1]), the concentration for half-maximal inhibition (IC50) turned out to be 11 µM. Also, the solubility in “Solubility in water” (setting [2]) is less than 5 µg/mL.

With `CC(C)(Sc1cc(C(C)(C)C)c(O)c(C(C)(C)C)c1)Sc1cc(C(C)(C)C)c(OCCCC(=O)O)c(C(C)(C)C)c1` [Example 3, Butanoic Acid, 4-[4-[[1-[[3,5-bis(1,1-dimethylethyl)4-hydroxyphenyl]thio]-1-methylethyl]-thio]-2,6-bis(1,1-dimethylethyl)phenoxy]-, Meglumine Salt], the IC50 with VCAM-1 (setting [3]) came out at 12 µM. The solubility in the data set “Solubility in water” (setting [4]) and in “Solubility in water” (setting [5]) was 1910 µg/mL throughout.

Turning to `CC(C)(Sc1cc(C(C)(C)C)c(O)c(C(C)(C)C)c1)Sc1cc(C(C)(C)C)c(OCC(=O)O)c(C(C)(C)C)c1` [Example 2, Acetic Acid, [4-[[1-[[3,5-bis(1,1-dimethylethyl)-4-hydroxyphenyl]thio]-1-methylethyl]thio]-2,6-bis(1,1-dimethylethyl)phenoxy]-, Meglumine Salt], the IC50 with VCAM-1 (setting [3]) was 6.5 µM. Moreover, the solubility in the data set “Solubility in water” (setting [4]) and in “Solubility in water” (setting [5]) was 1010 µg/mL each time.

Consider `CC(C)(Sc1cc(C(C)(C)C)c(O)c(C(C)(C)C)c1)Sc1cc(C(C)(C)C)c(OC(=O)CCC(=O)O)c(C(C)(C)C)c1` [Example 1, Butanedioic Acid, Mono [4-[[1-[[3,5-bis(1,1-dimethylethyl)-4-hydroxyphenyl]thio]-1-methylethyl]thio]-2,6-bis(1,1-dimethylethyl)phenyl]Ester Meglumine Salt], for which the IC50 in the data set on VCAM-1 (setting [3]) turned out to be 13 µM. Moreover, the solubility in the data set “Solubility in water” (setting [4]) and in the data set “Solubility in water” (setting [5]) was 390 µg/mL each time.

One may read the IC50 as the concentration at which inhibition is half-maximal.
